Columns and labels:
dopamine D-2 receptors = biological target: T1, dopamine D-2 receptors (Rattus norvegicus, UniProt P61169); assay: Inhibition of 3H-spiperone binding to dopamine D-2 receptors in rat corpus striatum in vitro; conditions: 3H-spiperone 0.5 nM, rat corpus striatum, 37° C., 10 min; read-out: Receptor Binding; IC50 DA D-2 3H-Spi
T1 construct: striatal tissue is dissected and weighed; from tissue; host or cells: corpus striatum of male Wistar rats, crude membranes
Description: INHIBITION OF ^3 H-SPIPERONE BINDING TO DOPAMINE D-2 RECEPTORS IN RAT CORPUS STRIATUM IN VITRO
By this method the inhibition by drugs of the binding of ^3 H-spiperone (0.5 nM) to dopamine D-2 receptors in membranes from rat corpus striatum is determined in vitro.
Male Wistar (Mol:Wistar) rats (125-250 g) are sacrificed and striatal tissue is dissected and weighed. The tissue is homogenized (Ultra Turrax, 10 sec.) in 10 ml of ice-cold 50 mM K-phosphate buffer pH 7.4 (at 25° C.). The homogenate is centrifuged twice at 20,000 g for 10 min. at 4° C. with rehomogenization of the pellet in 10 ml ice-cold buffer. The final pellet is homogenized in 1300 vol (w/v) ice-cold buffer.
Incubation tubes kept on ice in triplicate receive 100 μl of drug solution in water (or water for total binding) and 4000 μl of tissue suspension (final tissue content corresponds to 3.08 mg original tissue). The binding experimental is initiated by addition of 100 μl of ^3 H-spiperone (final concentration 0.5 nM) and by placing the tubes in a 37° C. water bath. After incubation for 10 min. the samples are filtered under vacuum (0-50 mBar) through Whatman GF/F filters (25 mm). The tubes are rinsed with 5 ml ice-cold buffer which are then poured on the filters. Thereafter, the filters are washed with 2×5 ml of buffer. The filters are placed in counting vials and 4 ml of appropriate scintillation fluid (e.g. Picofluor ™15) are added. After shaking for 1 h and storage 2 hrs in the dark the content of radioactivity is determined by liquid scintillation counting. Specific binding is obtained by subtracting the nonspecific binding in the presence of 10 μM of 6,7-ADTN.
For determination of the inhibition of binding five concentrations of drugs covering 3 decades are used.
^3 H-Spiperone=[phenyl-4-^3 H]-spiperone from Amersham International plc. England, specific activity 15-25 Ci/mmol.

[1] = Meert and Janssen, Drug Dev. Res. 1989, 18, 119; cited from earlier work
α1 adrenoceptors = assay: Inhibition of 3H-prazosin binding to α1 adrenoceptors in rat brain in vitro; conditions: 3H-Prazosin 0.25 nM, rat brain, 25° C., 20 min; read-out: Receptor Binding; IC50 α1 3H-Praz
male albino BKW mice = assay: Light/dark discrimination test in mice; type: in vivo, mouse; conditions: intraperitoneally 45 min before testing, doses from 0.01 to 1 mg/kg
Description: LIGHT/DARK DISCRIMATION TEST IN MICE
This test was carried out in accordance with the method described in Costall et al. Br. J. Pharmacol. 90 275P (1987).
The test was conducted using a two compartment activity box in which the actions of anxiolytic compounds to reduce aversion against a brightly-lit environment may be readily detected. The box is designed as an open-top experimental box (45*27*27 cm) one third of which was partitioned from the rest, painted black and illuminated with red light. The remainder of the box was painted white and brightly illuminated (1000 W). The floor of each area was lined into squares. Behavioral changes were determined for each area from video recordings for periods of 40 min.
Data obtained from dose groups of 5 animals (male albino BKW mice, 25-30 g) were analysed using single factor analysis of variance, and Dunnett's t-test. Test compounds were given intraperitoneally 45 min before testing.

Wistar WU rats = assay: Light/dark discrimination test in rats; type: in vivo, rat; conditions: doses from 0.1 to 1 mg/kg
Description: LIGHT/DARK DISCRIMINATION TEST IN RATS
The test was carried out similarly to the test in mice described above, however modified in accordance with F. C. Colpaert et al., Psychopharmacology (1985) 86:45-54. The test used Wistar WU rats.

5-HT2 receptors = biological target: T2, 5-HT2 receptors (Rattus norvegicus, UniProt P14842); assay: Inhibition of 3H-ketanserin binding to 5-HT2 receptors in rat cortex in vitro; conditions: 3H-Ketanserin 0.5 nM, rat cortex, 37° C., 30 min; read-out: Receptor Binding; IC50 5-HT2 3H-Ket
T2 construct: cortical tissue is dissected and weighed; from tissue; host or cells: cortex of male Wistar rats, crude membranes
T2 sequence (P14842 whole entry): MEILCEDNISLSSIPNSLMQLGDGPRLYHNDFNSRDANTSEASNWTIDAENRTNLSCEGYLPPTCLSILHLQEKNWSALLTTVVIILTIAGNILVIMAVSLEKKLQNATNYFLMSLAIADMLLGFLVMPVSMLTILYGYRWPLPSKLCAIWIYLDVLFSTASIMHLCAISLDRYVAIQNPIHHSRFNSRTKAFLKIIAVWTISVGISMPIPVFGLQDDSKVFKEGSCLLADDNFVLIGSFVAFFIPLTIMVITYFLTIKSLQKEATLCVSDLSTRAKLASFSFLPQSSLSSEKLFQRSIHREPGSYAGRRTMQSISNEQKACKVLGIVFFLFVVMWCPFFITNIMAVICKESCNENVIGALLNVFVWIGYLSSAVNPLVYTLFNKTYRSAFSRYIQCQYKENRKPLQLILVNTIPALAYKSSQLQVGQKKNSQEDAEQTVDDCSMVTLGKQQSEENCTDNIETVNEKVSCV

T1 sequence (P61169 whole entry): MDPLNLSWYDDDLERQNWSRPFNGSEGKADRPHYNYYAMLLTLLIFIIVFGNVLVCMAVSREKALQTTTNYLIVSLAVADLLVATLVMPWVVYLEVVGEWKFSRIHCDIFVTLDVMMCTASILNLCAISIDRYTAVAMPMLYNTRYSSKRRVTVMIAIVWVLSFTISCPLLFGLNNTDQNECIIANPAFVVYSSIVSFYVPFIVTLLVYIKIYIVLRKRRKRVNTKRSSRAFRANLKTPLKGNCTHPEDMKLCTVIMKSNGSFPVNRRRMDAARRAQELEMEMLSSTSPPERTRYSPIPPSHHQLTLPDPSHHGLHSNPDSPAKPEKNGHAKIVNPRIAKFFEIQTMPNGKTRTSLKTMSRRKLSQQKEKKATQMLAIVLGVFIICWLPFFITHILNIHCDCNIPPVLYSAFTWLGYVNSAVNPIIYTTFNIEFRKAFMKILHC

Structure (SMILES) | IC50 (dopamine D-2 receptors) [µM] | effect in the treatment of anxiety and depression [1] | IC50 (α1 adrenoceptors) [µM] | anxiolytic activity (male albino BKW mice) | anxiolytic activity (Wistar WU rats) | IC50 (5-HT2 receptors) [µM]
Cc1nc2sccn2c(=O)c1CCN1CCC(=C(c2ccc(F)cc2)c2ccc(F)cc2)CC1 [Ritanserin, reference compound] | 0.012 | effective in the treatment of anxiety and depression | 0.047 |  |  | 
O=C1NCCCN1CCN1CCN([C@@H]2C[C@@H](c3ccc(F)cc3)c3cc(F)ccc32)CC1 (single isomer, unassigned) [(+)-33, (+)-Trans-1-[2-[4-[5-fluoro-3-(4-fluorophenyl)-2,3-dihydro-1H-inden-1-yl]piperazin-1-yl]ethyl]-tetrahydro-2(1H)-pyrimidinone] |  |  | 0.041 | significant anxiolytic activity (p<0.05) in doses from 0.01 to 1 mg/kg | significant anxiolytic activity (p<0.05) in doses from 0.1 to 1 mg/kg | 0.0011
Fc1ccc([C@@H]2C[C@@H](N3CCN(CCN4CCCNC4=S)CC3)c3ccc(F)cc32)cc1 (single isomer, unassigned) [(+)-30, (+)-Trans-1-[2-[4-[5-fluoro-3-(4-fluorophenyl)-2,3-dihydro-1H-inden-1-yl]piperazin-1-yl]ethyl]-tetrahydro-2(1H)-pyrimidinethione] |  |  | 0.043 | significant anxiolytic activity (p<0.05) in doses from 0.01 to 1 mg/kg |  | 0.00095
CC(C)N1CCN(CCN2CCN([C@@H]3C[C@@H](c4ccc(F)cc4)c4cc(C(F)(F)F)ccc43)CC2)C1=O (relative stereo) [Compound 13, Trans-1-[2-[4-[3-(4-fluorophenyl)-5-(trifluoromethyl)-2,3-dihydro-1H-inden-1-yl]piperazin-1-yl]ethyl]-3-isopropyl-2-imidazolidinone] | 0.51 |  | 0.35 |  |  | 0.0037
CC1(C)CNC(=O)N(CCN2CCN([C@@H]3C[C@@H](c4ccc(F)cc4)c4cc(Cl)ccc43)CC2)C1 (single isomer, unassigned) [Compound 35, (+)-Trans-1-[2-[4-[5-chloro-3-(4-fluorophenyl)-2,3-dihydro-1H-inden-1-yl]piperazin-1-yl]ethyl]-5,5-dimethyl-tetrahydro-2(1H)-pyrimidinone] | 0.15 |  | 0.12 |  |  | 0.0048
Cc1ccc2c(c1)[C@H](N1CCN(CCN3CCNC3=O)CC1)C[C@H]2c1ccc(F)cc1 (relative stereo) [Compound 40, reference compound] | 0.043 |  | 0.012 |  |  | 0.00071
Fc1ccc([C@@H]2C[C@@H](N3CCN(CCN4CCCNC4=S)CC3)c3ccc(Cl)cc32)cc1 (single isomer, unassigned) [(-)-32, (-)-Trans-1-[2-[4-[5-chloro-3-(4-fluorophenyl)-2,3-dihydro-1H-inden-1-yl]piperazin-1-yl]ethyl]-tetrahydro-2(1H)-pyrimidinethione] |  |  | 0.067 | significant anxiolytic activity (p<0.05) in doses from 0.01 to 1 mg/kg | significant anxiolytic activity (p<0.05) in doses from 0.1 to 1 mg/kg | 0.00075

From patent US5643784A, “Indan derivatives” (H, Lundbeck A/S, priority 1990, dated 1997)
